Experiment: method code SF-AS, from DOI: 10.1897/1552-8618(1992)11[901:aapohp]2.0.co;2

Row | logP | Compound
1 | 1.78 | CC(=O)Nc1ccc(Cl)cc1[N+](=O)[O-]
2 | 3.76 | CC(=O)Nc1cc(Cl)c(Cl)c(Cl)c1
3 | 1.22 | CC(=O)Nc1c(C)cccc1Cl
4 | 2.69 | CC(=O)Nc1ccc(C)c(Cl)c1
5 | 3.24 | CC(=O)Nc1cc(C(F)(F)F)c(Cl)cc1Cl
6 | 0.61 | CC(=O)Nc1c(C)cccc1[N+](=O)[O-]
7 | 1.32 | CC(=O)Nc1c(Cl)cccc1Cl
8 | 1.85 | CC(=O)Nc1cc(Cl)ccc1C
9 | 2.19 | CC(=O)Nc1cc(Cl)ccc1Cl
10 | 1.47 | CC(=O)Nc1cccc([N+](=O)[O-])c1
11 | 2.1 | CCc1cccc(C(C)C)c1NC(C)=O
12 | 0.49 | NC(=O)c1c(F)cccc1Cl
13 | 2.18 | CC(=O)Nc1ccc(Cl)cc1Cl
14 | 2.1 | CC(=O)Nc1ccc(C)c(C)c1
15 | 1.68 | COc1c(Cl)cccc1NC(C)=O
16 | 1.41 | CCc1cccc(C)c1NC(C)=O
17 | 1.62 | CC(=O)Nc1ccccc1I
18 | 1.85 | CCc1cccc(CC)c1NC(C)=O
19 | 1.82 | CC(=O)Nc1cccc(Cl)c1C

Row | logP | Compound
20 | 1.98 | CC(=O)Nc1ccc(Cl)cc1C(F)(F)F
21 | 1.91 | CC(=O)Nc1ccc(Cl)cc1F
22 | 0.69 | CC(=O)Nc1c(F)cccc1F
23 | 1.46 | CC(=O)Nc1ccc(C)cc1C
24 | 3.17 | CC(=O)Nc1cc(Cl)cc(Cl)c1
25 | 1.83 | CC(=O)Nc1cccc(Cl)c1F
26 | 1 | NC(=O)c1c(Cl)cccc1Br
27 | 2.88 | CC(=O)Nc1ccc(Cl)c(Cl)c1Cl
28 | 1.07 | CC(=O)Nc1c(C)cccc1C
29 | 2.09 | CC(=O)Nc1cccc(Cl)c1Cl
30 | 2.41 | CC(=O)Nc1c(C(C)C)cccc1C(C)C
31 | 0.59 | COc1cccc(Cl)c1C(N)=O
32 | 1.35 | CC(=O)Nc1cccc(C)c1C
33 | 1.03 | CC(=O)Nc1ccccc1F
34 | 3.33 | CC(=O)Nc1ccc(Cl)c(C(F)(F)F)c1
35 | 0.89 | Cc1cccc(Cl)c1C(N)=O
36 | 1.28 | COc1c(C)cccc1NC(C)=O
37 | 1.13 | COc1cccc(NC(C)=O)c1C

The next lines start with the molecule.

Row | Compound | logP
38 | CC(=O)Nc1cc(C(F)(F)F)ccc1F | 2.24
39 | CC(C)c1ccccc1[N+](=O)[O-] | 3.34
40 | CC(=O)Nc1cc(C)ccc1C | 1.47
41 | CC(=O)Nc1cc(Cl)c(F)c(Cl)c1F | 2.9
42 | CC(=O)Nc1cc(C(F)(F)F)cc(C(F)(F)F)c1 | 3.72
43 | COc1cccc([N+](=O)[O-])c1C | 2.68
44 | CC(=O)Nc1c(C)cc(C)cc1[N+](=O)[O-] | 1.18
45 | CC(=O)Nc1ccccc1-c1ccccc1 | 2.02
46 | CC(=O)Nc1cc(C)cc(C)c1 | 2.17
47 | CCc1ccccc1C(N)=O | 1.17
48 | CC(=O)Nc1ccccc1Oc1ccccc1 | 2.37
49 | COc1ccccc1F | 2.14
50 | O=[N+]([O-])c1cc(C(F)(F)F)cc([N+](=O)[O-])c1Cl | 2.5
51 | CC(=O)Nc1c(F)c(F)c(F)c(F)c1F | 1.7
52 | CCCCc1ccc(NC(C)=O)c(C)c1 | 3.1
53 | COc1cccc([N+](=O)[O-])c1C(N)=O | -0.26
54 | NC(=O)c1c(F)cccc1Br | 0.63
55 | CC(=O)Nc1ccc(C)c(C)c1C | 1.76
56 | CCCCc1ccc(NC(C)=O)c([N+](=O)[O-])c1 | 3.1
57 | COc1cccc(OC)c1C | 2.87
58 | NC(=O)c1ccccc1C(F)(F)F | 0.68
59 | CC(=O)Nc1cc(C(F)(F)F)cc(Cl)c1Cl | 3.27
60 | CC(=O)Nc1ccc(Oc2ccccn2)cc1 | 1.57
61 | O=[N+]([O-])c1ccc(Cl)cc1[N+](=O)[O-] | 2.18
62 | COc1cccc(OC)c1C(N)=O | -0.22

Row | Compound | logP
63 | C=CCOc1cc(NC(C)=O)c(F)cc1Cl | 2.76
64 | CC(=O)Nc1cc(Cl)cc(C(F)(F)F)c1F | 3.15
65 | CC(=O)Nc1cc(Cl)cc(C(F)(F)F)c1Cl | 3.27
66 | N#Cc1ccccc1C#N | 0.99
67 | COc1ccc(NC(C)=O)c([N+](=O)[O-])c1 | 1.09
68 | CC(=O)Nc1cc(C(F)(F)F)cc(C(F)(F)F)c1Br | 3.51
69 | CC(=O)Nc1ccc(C)cc1[N+](=O)[O-] | 1.49
70 | CC(=O)Nc1cc(F)cc(C(F)(F)F)c1Cl | 2.86
71 | Cc1cccc(C)c1C(N)=O | 0.9
72 | CCCc1cc(NC(C)=O)ccc1OC | 2.72
73 | COc1ccc(C)c(OC)c1 | 2.76
74 | COc1ccc(OC)c(Cl)c1 | 2.69
75 | NC(=O)c1ccccc1I | 0.93
76 | CC(=O)Nc1cc(C(F)(F)F)c(F)cc1F | 2.34
77 | CCc1ccccc1OC | 3.18
78 | Cc1ccccc1C(N)=O | 0.76
79 | NC(=O)c1c(Cl)cccc1[N+](=O)[O-] | 0.12
80 | CCCCc1ccc(NC(C)=O)cc1C | 3.64
81 | CC(C)c1ccccc1C(N)=O | 1.39
82 | CC(=O)Nc1c([N+](=O)[O-])cccc1[N+](=O)[O-] | 0.56
83 | CC(=O)Nc1cc(C)c(C)c(C)c1 | 2.5
84 | CCCCc1ccc(NC(C)=O)cc1 | 3.3
85 | CC(=O)Nc1ccc(OC(F)(F)F)cc1 | 2.62
86 | COc1c(C)cccc1C | 3.02
87 | CC(=O)Nc1cc(C(F)(F)F)c(Cl)cc1F | 3.02

From the SangsterLogP compilation
